Data on two molecules can be found in PMC7453296 (Journal of Pesticide Science, 2020).

The Km is the substrate concentration at which the rate is half of its maximum. Usually Kd stands for the constant that tells how readily two partners part at equilibrium.

Assay [1] has as its system HcbA3C-His (HcbA3, NADH:FMN oxidoreductase). Kind of assay: NADH oxidation at […] nm, steady-state ping-pong fit. The following applies: 20 mM KPi pH 7.5, 20°C, ping-pong bi-bi. Format: biochemical, Nocardioides sp. PD653.
The target of assay [2] is HcbA3C-His (HcbA3, NADH:FMN oxidoreductase). Kind of assay: fluorescence quenching titration of flavin. The format is binding, Nocardioides sp. PD653. The following applies: 50 nM FMN, 20 mM KPi pH 7.5, 20°C; oxidized FMN.

Turning to `Cc1cc2nc3c(=O)[nH]c(=O)nc-3n(C[C@H](O)[C@H](O)[C@H](O)COP(=O)(O)O)c2cc1C` [FMN], in assay [1] (NADH 10–120 µM), the Km was 4.43 ± 0.69 µM. In addition, the Kd in assay [2] stood at 750 ± 170 nM. With `NC(=O)C1=CN([C@@H]2O[C@H](COP(=O)(O)OP(=O)(O)OC[C@H]3O[C@@H](n4cnc5c(N)ncnc54)[C@H](O)[C@@H]3O)[C@@H](O)[C@H]2O)C=CC1` [NADH], the Michaelis constant (Km) in assay [1] (FMN 1–8 µM) was determined as 51.7 ± 11.6 µM.
